Experimental data from patent US12082581B2, “Acrylate derivative, use and production intermediate compound of the same” (SUMITOMO CHEMICAL COMPANY, LIMITED, priority 2019, dated 2024).

Tested on: cabbage moth (Plutella xylostella)
Test: Cabbage moth mortality test on sprayed cabbage seedling (Test method 23)
Type: in vivo
Settings: 500 ppm, 20 mL/seedling sprayed on cabbage; 5 second instar larvae; after 5 days
Experimental: The present compound is made to a formulation according to a similar method to that described in the Formulation Example 6, and thereto is added water containing 0.03 v/v % of a spreader to prepare a diluted solution containing a prescribed concentration of the test compound.
Cabbage (Brassicae oleracea) seedling (on the developmental stage of the second to third true leaf) is planted in a cup, and the diluted solutions are sprayed into the seedling at a ratio of 20 mL/seedling. Thereafter, the stem and leaf of the seedling is cut out and is then installed into the container that is covered with the filter paper. Five (5) cabbage moth (Plutella xylostella) at the second instar larval stages are released into the cup. After 5 days, the surviving insects are counted, and the mortality of insects is calculated by the following equation. Mortality (%)={1−the number of the surviving insects/5}×100

## COC=C(Cc1cc(OCc2ccccc2)ccc1C)C(=O)OC [compound 28]
  mortality: 100%
